Laboratory results reported in patent US6956030B2, “Use of mometasone furoate for treating upper airway diseases” (Schering Corporation, priority 1994, dated 2005).
Where two headings read alike, the source gives them in different places.

Legend:
[1] = system: patients with seasonal allergic rhinitis; test: Dose ranging safety and efficacy study, aqueous nasal spray, 4 weeks; type: in vivo; details: nasal spray 50, 100, 200, 800 mcg/day
Text: In treating allergic and non-allergic rhinitis, the aqueous suspension of mometasone furoate may be administered intranasally by inserting an appropriate device (such as the pump spray bottle used to deliver Vancenase AQ® Nasal Spray as well as the spray bottle disclosed in the Schering Corporation Industrial Design Deposit DM/026304 registered Jun. 1, 1993) into each nostril. Active drug is then expelled (nasal spray device) or could be nasally inhaled (sniffed) as a powder. Efficacy is generally assessed in a double blind fashion by a reduction in nasal symptoms (e.g., sneezing, itching, congestion, and discharge). Other objective measurements (e.g., nasal peak flow and resistance) can be used as supportive indices of efficacy.
In a dose ranging safety and efficacy study, the mometasone furoate aqueous nasal spray formulation at doses of 50 mcg/day, 100 mcg/day, 200 mcg/day, 800 mcg/day or placebo was administered to 480 patients with seasonal allergic rhinitis for 4 weeks.

[2] = system: symptomatic patients with seasonal allergic rhinitis; test: Onset of clinical efficacy study, nasal spray, 14 days, total nasal symptom score; type: in vivo
Description: The study lasted 14 days in length. Data from 201 patients were used for analysis. a. Signs and symptoms were individually scored by the patient on the diary card, and by the investigator or designee at Screening and Baseline (Day 1), Day 4, Day 8, and Day 15 after treatment. All symptoms (nasal and non-nasal) were rated by the investigator or designee according to the following scale: The overall condition of rhinitis was evaluated by the investigator or designee and patient at the same time as symptoms, and scored according to the following criteria: 3. Drug—Each patient was given a metered nasal pump spray bottle containing either an aqueous suspension of mometasone furoate or placebo. […] After the Baseline visit, each patient was instructed to enter into his/her diary the information about the time of onset of nasal relief and level of nasal symptom relief as no relief, slight, moderate, marked, or complete. At Baseline and each follow-up visit, the physician evaluated the following signs and symptoms of allergic rhinitis, scored as 0=none, 1=mild, 2=moderate, 3=severe. • a. NASAL SYMPTOMS • nasal discharge • congestion/stuffiness • sneezing • itching • b. […] At each follow-up visit post Baseline, the physician and patient evaluated the therapeutic response as 5=no relief, 4=slight relief, 3=moderate relief, 2=marked relief, 1=complete relief. After the Baseline visit, each morning and evening the patient completed a diary to assess the 8 signs and symptoms of allergic rhinitis as described above. The primary efficacy results are based on a survival analysis of the onset times of relief (defined as the first time patient experienced at least moderate relief of nasal symptoms) for the mometasone furoate nasal spray and placebo groups. In this analysis, patients reporting slight or no relief for the first 3 days after treatment were censored at Day 3. Also, results from the patient regular diary (by 15-day average) data were evaluated. Data from 201 patients were used in the survival analysis.

[3] = system: cortisol secretion; test: Multiple dose 28-day study, aqueous nasal spray, cortisol secretion; type: in vivo, normal male volunteers; details: intranasal 400 or 1600 mcg/day, 28 days
Text: In a follow-up multiple dose study, 48 normal male volunteers were empaneled in a randomized, third party-blinded, placebo and active-controlled parallel group study. Twelve volunteers in each of four groups received one of the following treatments for 28 days: A) Intranasal aqueous nasal spray suspension formulation of mometasone furoate monohydrate, 400 mcg/day; B) Intranasal aqueous nasal spray suspension formulation of mometasone furoate monohydrate, 1600 mcg/day; C) Intranasal placebo; D) Oral prednisone, 10 mg/day. All treatments were administered as once daily dosing in the morning.

[4] = system: patients with mild asthma

For `C[C@@H]1C[C@H]2[C@@H]3CCC4=CC(=O)C=C[C@]4(C)[C@@]3(Cl)[C@@H](O)C[C@]2(C)[C@@]1(OC(=O)c1ccco1)C(=O)CCl` [mometasone furoate], the “efficacy relative to placebo” value [1] was “effective relative to placebo”, the tolerability [1] was “well tolerated” and the “reduction in total nasal symptom score from baseline” value ([2]; morning & evening averaged diary, 15-days average) was “statistically significantly higher than that for the placebo group”. For the same compound, the “median onset time to relief (at least moderate relief of nasal symptoms)” value ([2]; nasal spray 200 mcg once-a-day, survival analysis, placebo 72 hours, log-rank p<0.001) was 35.9 h, the “patients who recorded slight or no relief (censored) at Day 3” value ([2]; of 101 patients, placebo 50 of 100) was 24 patients and the “cortisol secretion compared to placebo” value [3] was “Neither of the 2 doses of the mometasone furoate aqueous nasal spray formulation were associated with any changes in cortisol secretion”. The tolerability [3] was “well tolerated”, the “FEV1 compared to placebo” value ([4]; 1 mg/day group, day 1) was “statistically significant, clinically meaningful improvement” and the “mean increase in FEV1 versus placebo” value ([4]; 1, 2 and 4 mg/day groups, every time point day 3 to day 28) was “statistically significantly greater than for the placebo group”. For the same compound, the “8 a.m. plasma cortisol” value ([4]; 1000 mcg or 2000 mcg daily, statistically significant compared to placebo) was “small decreases from Baseline on Days 15 and 21”, the “8 a.m. plasma cortisol” value ([4]; 4000 mcg daily, statistically different from placebo Day 3 through Day 28) was “greater decreases in plasma cortisol” and the “increase in FEV1 from Baseline” value ([4]; at a majority of time points) was ≥ 15%. For the same compound, the “response to ACTH infusion at post-treatment (Day 30)” value ([4]; in vivo) was “significant increases from Baseline in plasma cortisol” and the “pulmonary function measured by FEV1” value ([4]; three treated groups, MDI twice daily) was “clinically meaningful increases in pulmonary function”.
